Measured values as given in article PMC9230590, “Pharmacokinetics and Tissue Distribution of Enavogliflozin in Mice and Rats” (Pharmaceutics, 2022).
Where “and” joins values, the source holds several entries; their conditions need not be identical. Identical values can stand only once. Like-named read-outs stand apart in the source and are kept apart here.

What was measured:
[1] = Pharmacokinetics after oral administration in rats; type: in vivo, Sprague Dawley (SD) rats; conditions: for AUC∞/D / Cmax/D: dose normalized; for Cmax/D: in (ng/mL)/(mg/kg); for AUC(0-t) / AUC(0-inf) / Cmax / half-life / MRT / Tmax / bioavailability: rat, plasma; for bioavailability: po
Experimental: Rats were fasted with water ad libitum for at least 12 h before the oral administration of enavogliflozin. Eighteen rats were randomly divided into three groups (n = 6 per each group) and administered the drug dissolved in a mixture of 10% DMSO and 90% saline at doses of 0.3, 1, and 3 mg/kg by oral gavage. Blood samples were collected at 0, 0.083, 0.25, 0.5, 1, 2, 4, 6, 8, and 24 h with the same procedures described above.
(§1) Concentrations of enavogliflozin in plasma and tissue homogenate samples were analyzed using an Agilent 6430 triple quadrupole liquid chromatography-mass spectrometry (LC–MS/MS) system (Agilent, Wilmington, DE, USA) following a previously published method.
(§2) The data were expressed as the means ± standard deviation for the groups. Pharmacokinetic parameters, such as the area under the plasma concentration–time curve during the period of observation (AUClast), AUC to infinite time (AUC∞), clearance (CL), and volume of distribution at steady-state (Vd,ss), the terminal half-life (t1/2), and mean residence time (MRT) were calculated using non-compartment analysis with WinNonlin software (version 5.1; Pharsights, Cary, NC, USA). The AUC ratios were calculated by dividing the AUClast of enavogliflozin in the tissue samples by the plasma AUClast values of enavogliflozin [15].

[2] = Recovery from urine and feces over 72 h in rats; type: in vivo, Sprague Dawley (SD) rats; conditions: for Recovery, Feces / Recovery, Urine: parent form
Experimental: Three rats received enavogliflozin (1 mg/kg) intravenously and were returned to metabolic cages with food and water ad libitum and urine and feces samples were collected every 24 h for 72 h. Four rats received enavogliflozin (1 mg/kg) by oral gavage and were returned to their metabolic cages to collect urine and feces samples every 24 h for 72 h with the same protocols described above.
as §1
Aliquots of plasma or urine (30 µL each) and tissue homogenate (50 µL each) were added to 100 µL of aqueous solution of d4-enavogliflozin (IS, 20 ng/mL), and vigorously mixed with 500 µL MTBE for 15 min. After centrifugation at 16,000× g for 5 min, samples were kept for 1 h, at a temperature of −80 °C to freeze the aqueous layer freeze. The organic upper layer was then transferred to a clean tube and evaporated to dryness under a gentle stream of nitrogen. The dried extract was reconstituted in 150 µL of mobile phase, and a 3 µL aliquot was injected into the LC–MS/MS system. Enavogliflozin was separated on a Synergi Polar RP column (2.0 × 150 mm, 4 µm particle size; Phenomenex, Torrence, CA, USA) using a isocratic mobile phase consisting of water (15%) and methanol (85%) containing 0.1% formic acid at a flow rate of 0.25 mL/min.

[3] = Tissue distribution after single oral administration in mice; type: in vivo, ICR mice; conditions: single oral 1 mg/kg; for half-life: read-out: T1/2 (elimination half-life) (converted); for AUC Ratio (AUC24 h, tissue / AUC24 h, plasma): 1 mg/kg
Experimental: Thirty-six ICR mice were fasted with water ad libitum for at least 12 h before oral administration of enavogliflozin and randomly divided into six groups (n = 6 per each sampling time point) and administered with an enavogliflozin solution at a dose of 1 mg/kg via oral gavage. Blood samples (approximately 0.2 mL) were collected at 0.5, 1, 2, 4, 8, 24 h via the abdominal artery. Subsequently, whole tissues, including stomach, small intestine, large intestine, liver, kidney, brain, heart, lung, spleen, and testis, were isolated. Blood samples were centrifuged at 12,000× g for 1 min to separate plasma. Tissue samples were minced thoroughly and homogenized with four volumes of saline using a tissue grinder. An aliquot (30 µL) of plasma and aliquots (50 µL) of tissue homogenate samples were stored at −80 °C until analysis.
as §1, §2

[4] = system: SGLT2; parameters: method as in PMID 32183468; conditions: cited from earlier work
[5] = system: hepatocytes; parameters: method as in PMID 32932946; conditions: mouse hepatocytes; cited from earlier work

## OC[C@H]1O[C@@H](c2cc(Cc3ccc(C4CC4)cc3)c(Cl)c3c2CCO3)[C@H](O)[C@@H](O)[C@@H]1O [enavogliflozin, (2S,3R,4R,5S,6R)-2-(7-chloro-6-(4-cyclopropylbenzyl) -2,3-dihydrobenzofuran-4-yl)-6-(hydroxymethyl)tetrahydro-2H-pyran-3,4,5-triol]
[1]; PO 0.3 mg/kg
  AUC∞/D: 1757.6 ± 643.4
  Cmax/D: 171.2 ± 49.9
[1]; PO 1 mg/kg
  AUC∞/D: 1649.3 ± 483.4
  Cmax/D: 183.0 ± 95.6
[1]; PO 3 mg/kg
  AUC∞/D: 1385.4 ± 361.8
  Cmax/D: 100.2 ± 36.1
[1]; Sprague Dawley, PO 0.3 mg/kg
  AUC(0-t): 489 ± 192 ng·h/mL
[1]; Sprague Dawley, PO 1 mg/kg
  AUC(0-t): 1350 ± 565 ng·h/mL
[1]; Sprague-Dawley, PO 0.3 mg/kg
  AUC(0-inf): 527 ± 193 ng·h/mL
  Cmax: 51.3 ± 15 ng/mL
  half-life: 6.3 ± 2.3 h
  MRT: 8.5 ± 3.2 h
  Tmax: 2.5 ± 2.4 h
[1]; Sprague-Dawley, PO 1 mg/kg
  AUC(0-inf): 1650 ± 483 ng·h/mL
  Cmax: 183 ± 95.6 ng/mL
  half-life: 6.9 ± 2.1 h
  MRT: 9.9 ± 3.6 h
  Tmax: 2.5 ± 2.5 h
[1]; Sprague-Dawley, PO 3 mg/kg
  AUC(0-inf): 4160 ± 1090 ng·h/mL
  AUC(0-t): 3250 ± 572 ng·h/mL
  Cmax: 301 ± 108 ng/mL
  half-life: 10.3 ± 7.5 h
  MRT: 14.9 ± 10.6 h
  Tmax: 2.9 ± 2.1 h
[1]; Sprague-Dawley, 0.3 mg/kg, PO 0.3 mg/kg, AUC∞,PO / AUC∞,IV, read-out: BA (absolute bioavailability)
  bioavailability: 62.1%
[1]; Sprague-Dawley, 1 mg/kg, PO 1 mg/kg, AUC∞,PO / AUC∞,IV, read-out: BA (absolute bioavailability)
  bioavailability: 58.9%
[1]; Sprague-Dawley, 3 mg/kg, PO 3 mg/kg, AUC∞,PO / AUC∞,IV, read-out: BA (absolute bioavailability)
  bioavailability: 56.3%
[1]; Sprague-Dawley, 3 mg/kg, range over doses 0.3, 1 and 3 mg/kg, read-out: Oral bioavailability
  bioavailability: 56.3 to 62.1%
[2]; 1 mg/kg IV
  Recovery in feces relative to urine: about 22.7 fold
[2]; 1 mg/kg IV, 0–24 h
  Recovery, Feces: 15.2 ± 6.2 % of Dose
[2]; 1 mg/kg IV, 0–72 h, 1 mg/kg
  Recovery, Feces: 15.9 ± 5.9 % of Dose and 15.9 % of Dose
  Recovery, Urine: 0.7 ± 0.2 % of Dose and 0.7 % of Dose
[2]; 1 mg/kg IV, 24–48 h
  Recovery, Feces: 0.7 ± 0.8 % of Dose
  Recovery, Urine: 0.1 ± 0.0 % of Dose
[2]; 1 mg/kg PO, 0–24 h
  Recovery, Feces: 44.5 ± 11.8 % of Dose
  Recovery, Urine: 0.3 ± 0.1 % of Dose
[2]; 1 mg/kg PO, 0–72 h
  Recovery, Urine: 0.3 ± 0.1 % of Dose
[2]; 1 mg/kg PO, 0–72 h, 1 mg/kg
  Recovery, Feces: 45.5 % of Dose
[2]; 1 mg/kg PO, 24–48 h
  Recovery, Feces: 0.9 ± 0.4 % of Dose
[2]; 1 mg/kg PO, 48–72 h
  Recovery, Feces: 0.2 ± 0.0 % of Dose
  Recovery, Urine: 0.3 ± 0.1 % of Dose
[2]; Sprague-Dawley, rat, urine and feces, 1 mg/kg IV, 72 h, read-out: total recovery (feces + urine)
  dose excreted: ~16.6%
[3]; male, ICR, mouse, kidney (versus plasma), kidney, read-out: AUC Ratio (AUC24 h, tissue / AUC24 h, plasma)
  Kp: 41.9
[3]; male, ICR, mouse, kidney and intestinal tract (versus plasma), read-out: AUC ratio of kidney and intestinal tract compared with plasma
  Kp: > 10
[3]; male, ICR, mouse, large intestine (versus plasma), range over stomach, small and large intestine, read-out: plasma AUC ratio, gastrointestinal tract
  Kp: 8.5 to 12.1
[3]; male, ICR, mouse, liver (versus plasma), liver, read-out: AUC Ratio (AUC24 h, tissue / AUC24 h, plasma)
  Kp: 5.8
[3]; male, ICR, mouse, heart, read-out: AUC Ratio (AUC24 h, tissue / AUC24 h, plasma)
  Kp: 1.7 ± 0.2
[3]; male, ICR, mouse, heart
  half-life: 3.6 h
[3]; male, ICR, mouse, kidney
  half-life: 29 h
[3]; male, ICR, mouse, large intestine, read-out: AUC Ratio (AUC24 h, tissue / AUC24 h, plasma)
  Kp: 8.5 ± 4.5
[3]; male, ICR, mouse, large intestine
  half-life: 3.4 h
[3]; male, ICR, mouse, liver
  half-life: 4.4 h
[3]; male, ICR, mouse, lung, read-out: AUC Ratio (AUC24 h, tissue / AUC24 h, plasma)
  Kp: 2 ± 0.2
[3]; male, ICR, mouse, lung
  half-life: 9.6 h
[3]; male, ICR, mouse, plasma, read-out: AUC24 h
  AUC(0-t): 1360 ± 260 ng·h/mL
[3]; male, ICR, mouse, plasma
  half-life: 3.7 h
[3]; male, ICR, mouse, small intestine, read-out: AUC Ratio (AUC24 h, tissue / AUC24 h, plasma)
  Kp: 10.8 ± 3
[3]; male, ICR, mouse, small intestine
  half-life: 2.6 h
[3]; male, ICR, mouse, spleen, read-out: AUC Ratio (AUC24 h, tissue / AUC24 h, plasma)
  Kp: 0.4
[3]; male, ICR, mouse, spleen
  half-life: 2.7 h
[3]; male, ICR, mouse, stomach, read-out: AUC Ratio (AUC24 h, tissue / AUC24 h, plasma)
  Kp: 12.1 ± 7
[3]; male, ICR, mouse, stomach
  half-life: 3.4 h
[3]; male, ICR, mouse, testis, read-out: AUC Ratio (AUC24 h, tissue / AUC24 h, plasma)
  Kp: 0.5 ± 0.1
[3]; male, ICR, mouse, testis
  half-life: 22 h
[3]; male, ICR, mouse, versus plasma, read-out: AUC ratio in stomach, small intestine, large intestine, liver
  Kp: > 5
[3]; brain
  Concentration in brain tissue: not detected
[3]; heart
  AUC24 h: 2.19 ± 0.35 µg·h/g
  K (elimination constant): 0.194 h⁻¹
[3]; kidney
  AUC24 h: 54.5 ± 3.5 µg·h/g
  K (elimination constant): 0.024 h⁻¹
  AUC Ratio (AUC24 h, tissue / AUC24 h, plasma): 41.9 ± 7.7
[3]; large intestine
  AUC24 h: 11.1 ± 4.3 µg·h/g
  K (elimination constant): 0.204 h⁻¹
[3]; liver
  AUC24 h: 8.08 ± 1.1 µg·h/g
  K (elimination constant): 0.159 h⁻¹
  AUC Ratio (AUC24 h, tissue / AUC24 h, plasma): 5.8 ± 0.4
[3]; lung
  AUC24 h: 3.04 ± 0.29 µg·h/g
  K (elimination constant): 0.072 h⁻¹
[3]; plasma
  K (elimination constant): 0.185 h⁻¹
[3]; small intestine
  AUC24 h: 14.2 ± 3.4 µg·h/g
  K (elimination constant): 0.267 h⁻¹
[3]; spleen
  AUC24 h: 0.58 ± 0.11 µg·h/g
  K (elimination constant): 0.255 h⁻¹
[3]; stomach
  AUC24 h: 15.1 ± 6.4 µg·h/g
  K (elimination constant): 0.206 h⁻¹
[3]; testis
  AUC24 h: 0.95 ± 0.15 µg·h/g
  K (elimination constant): 0.031 h⁻¹
[4]
  IC50: 0.8 ± 0.3 nM
[4]; restrained recovery of SGLT2 activity after removal
  mode of SGLT2 inhibition: reversibly and competitively inhibited SGLT2
[4]; selectivity SGLT2 over SGLT1
  difference in IC50 values for SGLT2 versus SGLT1: 667 fold
[5]
  In vitro hepatic clearance: 36.5 mL/min/kg
